Assays:
Format in all cases: functional
[1] = system: U-251; assay: Growth inhibition of human U251 cells after 48 hrs by sulforhodamine B colorimetric assay; conditions: U-251, 48 h
[2] = system: MCF7; assay: Growth inhibition of human MCF7 cells after 48 hrs by sulforhodamine B colorimetric assay; conditions: MCF7, 48 h
[3] = Growth inhibition of human MKN45 cells after 48 hrs by sulforhodamine B colorimetric assay; conditions: MKN-45, 48 h
[4] = system: MDA-MB-231; assay: Growth inhibition of human MDA-MB-231 cells after 48 hrs by sulforhodamine B colorimetric assay; conditions: MDA-MB-231, 48 h
[5] = Growth inhibition of human MKN74 cells after 48 hrs by sulforhodamine B colorimetric assay; conditions: MKN-74, 48 h
[6] = system: A549; assay: Growth inhibition of human A549 cells after 48 hrs by sulforhodamine B colorimetric assay; conditions: A549, 48 h
[7] = system: DU-145; assay: Growth inhibition of human DU145 cells after 48 hrs by sulforhodamine B colorimetric assay; conditions: DU-145, 48 h
[8] = Growth inhibition of human HCC2998 cells after 48 hrs by sulforhodamine B colorimetric assay; conditions: HCC 2998, 48 h
[9] = system: NCI-H226; assay: Growth inhibition of human NCI-H226 cells after 48 hrs by sulforhodamine B colorimetric assay; conditions: NCI-H226, 48 h
[10] = system: HT-29; assay: Growth inhibition of human HT-29 cells after 48 hrs by sulforhodamine B colorimetric assay; conditions: HT-29, 48 h
[11] = Growth inhibition of human MKN28 cells after 48 hrs by sulforhodamine B colorimetric assay; conditions: MKN-28, 48 h
[12] = Growth inhibition of human PC3 cells after 48 hrs by sulforhodamine B colorimetric assay; conditions: PC-3, 48 h
[13] = system: ACHN; assay: Growth inhibition of human ACHN cells after 48 hrs by sulforhodamine B colorimetric assay
[14] = system: NCI-H522; assay: Growth inhibition of human NCI-H522 cells after 48 hrs by sulforhodamine B colorimetric assay; conditions: NCI-H522, 48 h
[15] = system: NCI-H460; assay: Growth inhibition of human NCI-H460 cells after 48 hrs by sulforhodamine B colorimetric assay; conditions: NCI-H460, 48 h
[16] = Growth inhibition of human OVCAR3 cells after 48 hrs by sulforhodamine B colorimetric assay; conditions: OVCAR-3, 48 h
[17] = system: SK-OV-3; assay: Growth inhibition of human SKOV3 cells after 48 hrs by sulforhodamine B colorimetric assay; conditions: SK-OV-3, 48 h
[18] = Growth inhibition of human RXF631L cells after 48 hrs by sulforhodamine B colorimetric assay; conditions: RXF 631, 48 h
[19] = Growth inhibition of human SF295 cells after 48 hrs by sulforhodamine B colorimetric assay; conditions: SF-295, 48 h
[20] = Growth inhibition of human LOXIMVI cells after 48 hrs by sulforhodamine B colorimetric assay; conditions: LOX IMVI
[21] = Growth inhibition of human DMS273 cells after 48 hrs by sulforhodamine B colorimetric assay; conditions: DMS-273, 48 h
[22] = system: SNB-75; assay: Growth inhibition of human SNB75 cells after 48 hrs by sulforhodamine B colorimetric assay; conditions: SNB-75, 48 h
[23] = system: SF-268; assay: Growth inhibition of human SF268 cells after 48 hrs by sulforhodamine B colorimetric assay; conditions: SF-268, 48 h
[24] = Growth inhibition of human OVCAR8 cells after 48 hrs by sulforhodamine B colorimetric assay; conditions: OVCAR-8, 48 h
[25] = Growth inhibition of human OVCAR5 cells after 48 hrs by sulforhodamine B colorimetric assay; conditions: OVCAR-5, 48 h
[26] = Growth inhibition of human OVCAR4 cells after 48 hrs by sulforhodamine B colorimetric assay; conditions: OVCAR-4, 48 h
[27] = system: KM12; assay: Growth inhibition of human KM12 cells after 48 hrs by sulforhodamine B colorimetric assay; conditions: KM12, 48 h
[28] = system: St-4; assay: Growth inhibition of human St-4 cells after 48 hrs by sulforhodamine B colorimetric assay; conditions: St-4, 48 h
[29] = Growth inhibition of human MKN1 cells after 48 hrs by sulforhodamine B colorimetric assay; conditions: MKN-1, 48 h
[30] = Growth inhibition of human SF539 cells after 48 hrs by sulforhodamine B colorimetric assay; conditions: SF-539, 48 h
[31] = Growth inhibition of human HCT116 cells after 48 hrs by sulforhodamine B colorimetric assay; conditions: HCT-116, 48 h
[32] = Growth inhibition of human HBC4 cells after 48 hrs by sulforhodamine B colorimetric assay; conditions: HBC4, 48 h
[33] = Growth inhibition of human SNB78 cells after 48 hrs by sulforhodamine B colorimetric assay; conditions: SNB-78, 48 h
[34] = Growth inhibition of human HCT15 cells after 48 hrs by sulforhodamine B colorimetric assay; conditions: HCT-15, 48 h
[35] = Growth inhibition of human HBC5 cells after 48 hrs by sulforhodamine B colorimetric assay; conditions: HBC5, 48 h
[36] = Growth inhibition of human BSY1 cells after 48 hrs by sulforhodamine B colorimetric assay; conditions: BSY-1, 48 h
[37] = Growth inhibition of human DMS114 cells after 48 hrs by sulforhodamine B colorimetric assay; conditions: DMS-114, 48 h
[38] = Growth inhibition of human MKN7 cells after 48 hrs by sulforhodamine B colorimetric assay; conditions: MKN-7, 48 h
[39] = system: NCI-H23; assay: Growth inhibition of human NCI-H23 cells after 48 hrs by sulforhodamine B colorimetric assay; conditions: NCI-H23, 48 h

Structure (SMILES) | GI50 [1] [µM] | GI50 [3] [µM] | GI50 [4] [µM] | GI50 [5] [µM] | GI50 [6] [µM] | GI50 [7] [µM] | GI50 [8] [µM] | GI50 [9] [µM] | GI50 [10] [µM] | GI50 [12] [µM] | GI50 [13] [µM] | GI50 [15] [µM] | GI50 [16] [µM] | GI50 [17] [µM] | GI50 [18] [µM] | GI50 [19] [µM] | GI50 [21] [µM] | GI50 [22] [µM] | GI50 [23] [µM] | GI50 [24] [µM] | other results
CCCCCCCCCCCC[C@@H](O)[C@H]1CC[C@H]([C@H](O)CCCCCCCCCCNC(=O)c2cncs2)O1 | > 100 | > 100 | > 100 | 61.7 | 34.7 | > 100 | > 100 | > 100 | > 100 | > 100 | > 100 | 34.7 | > 100 | > 100 | > 100 | 43.7 | 19.1 | > 100 | > 100 | > 100 | GI50 [2]: > 100 µM; GI50 [11]: 0.832 µM; GI50 [14]: 19.1 µM; GI50 [20]: > 100 µM; GI50 [25]: > 100 µM; GI50 [26]: > 100 µM; GI50 [27]: > 100 µM; GI50 [28]: > 100 µM; GI50 [29]: > 100 µM; GI50 [30]: 50.1 µM; GI50 [31]: 12.9 µM; GI50 [32]: > 100 µM; GI50 [33]: > 100 µM; GI50 [34]: > 100 µM; GI50 [35]: > 100 µM; GI50 [36]: 3.98 µM; GI50 [37]: 0.219 µM; GI50 [38]: 0.617 µM; GI50 [39]: 4.79 µM
CCCCCCCCCCCC[C@@H](O)[C@H]1CC[C@H]([C@H](O)CCCCCCCCCCNC(=O)c2ccoc2)O1 | > 100 | > 100 | > 100 | 21.9 | > 100 | > 100 | 79.4 | > 100 | > 100 | 52.5 | > 100 | > 100 | > 100 | > 100 | > 100 | > 100 | > 100 | > 100 | > 100 | 66.1 | GI50 [2]: 26.9 µM; GI50 [11]: 0.55 µM; GI50 [14]: 10 µM; GI50 [20]: 21.9 µM; GI50 [25]: > 100 µM; GI50 [26]: 74.1 µM; GI50 [27]: > 100 µM; GI50 [28]: 97.7 µM; GI50 [29]: > 100 µM; GI50 [30]: > 100 µM; GI50 [31]: 3.47 µM; GI50 [32]: > 100 µM; GI50 [33]: > 100 µM; GI50 [34]: > 100 µM; GI50 [35]: > 100 µM; GI50 [36]: 2.19 µM; GI50 [37]: 0.191 µM; GI50 [38]: 0.372 µM; GI50 [39]: 3.02 µM
CCCCCCCCCCCC[C@@H](O)[C@H]1CC[C@H]([C@H](O)CCCCCCCCCCNC(=O)c2ccco2)O1 | > 100 | > 100 | > 100 | 1.7 | > 100 | > 100 | > 100 | 97.7 | > 100 | > 100 | > 100 | 18.2 | > 100 | > 100 | > 100 | 33.9 | 39.8 | > 100 | > 100 | > 100 | GI50 [2]: > 100 µM; GI50 [11]: 0.617 µM; GI50 [14]: 18.2 µM; GI50 [20]: 17 µM; GI50 [25]: > 100 µM; GI50 [26]: 15.8 µM; GI50 [27]: > 100 µM; GI50 [28]: > 100 µM; GI50 [29]: > 100 µM; GI50 [30]: 81.3 µM; GI50 [31]: 7.76 µM; GI50 [32]: > 100 µM; GI50 [33]: > 100 µM; GI50 [34]: > 100 µM; GI50 [35]: > 100 µM; GI50 [36]: 0.49 µM; GI50 [37]: 0.282 µM; GI50 [38]: 0.832 µM; GI50 [39]: 12.9 µM
CCCCCCCCCCCC[C@@H](O)[C@H]1CC[C@H]([C@H](O)CCCCCCCCCCCCC2=C[C@H](C)OC2=O)O1 [REL-SOLAMIN] | > 100 | > 100 | > 100 | > 100 | > 100 | > 100 | > 100 | > 100 | > 100 | > 100 | > 100 | > 100 | > 100 | > 100 | > 100 | 39.8 | > 100 | > 100 | > 100 | > 100 | GI50 [25]: > 100 µM; GI50 [26]: > 100 µM; GI50 [27]: > 100 µM; GI50 [28]: > 100 µM; GI50 [29]: > 100 µM; GI50 [30]: > 100 µM; GI50 [31]: > 100 µM; GI50 [32]: > 100 µM; GI50 [33]: > 100 µM; GI50 [34]: > 100 µM; GI50 [35]: > 100 µM; GI50 [36]: > 100 µM
